From patent US10420819B2 (Extend Biosciences, Inc., priority 2014, dated 2019)

Key:
blood glucose levels = test: Blood glucose lowering pharmacodynamics in rats (Amplex Red Glucose/Glucose Oxidase Assay); assay type: in vivo; details: intravenous administration (FIG. 6)
Experimental: Blood glucose levels were determined in rats injected with free glucose and the conjugates using the Amplex Red Glucose/Glucose Oxidase Assay Kit (Invitrogen, Carlsbad, Calif., Cat. No. A22189).

[1] = rat

| Substance | blood glucose lowering ability in vivo (blood glucose levels) | in vivo half life [1] | duration of stably reduced blood glucose levels (blood glucose levels) |
| --- | --- | --- | --- |
| 20K-PEG-insulin: 20 kD PEG-NHS conjugated to human insulin, one 20 kD PEG; benchmark therapeutic (see EP2288375) | did not display significant glucose lowering ability for an extended time | improved the in vivo half life |  |
| VitD-(25)-PEG2K-insulin: 2 KDa PEG scaffold on carbon 25 of vitamin D, carrier conjugated to lysine 29 on the insulin B-chain |  | improved the in vivo half life | approximately eight |
